According to ChEMBL document CHEMBL1130467, “Synthesis and antitumor activity of novel cyclopropapyrroloindole(CPI) derivatives bearing methoxycarbonyl and trifluoromethyl groups” (Bioorg Med Chem Lett, 1997):
Converted amounts (≈) assume the structure as drawn.

How the values were obtained:
P388 [1] = test: Concentration required to inhibit p388 murine leukemia cells by 50%; format: functional, cell-based; settings: Mus musculus
P388 [2] = test: Percent increase in life span of p388 murine leukemia cells (inoculated i.p. on day 0) as compared to that of untreated group at 0.125 mg/kg i.p. compound dose on day 1; format: functional; settings: Mus musculus, P388, ip, route intraperitoneal
[3] = Percent tumor growth (TGI) inhibition against S180 murine Sarcoma cells( inoculated s.c. into male ICR mice on day 0), as compared to that of untreated group at 0.5 mg/kg i.v. compound dose on day 1; format: functional; settings: Mus musculus, CCRF S-180, route intravenous, read-out: TGI
Colon 26 [4] = test: Antitumor activity against colon 26 murine adenocarcinoma cells expressed as percent TGI 50 (tumor growth inhibition) at 0.177 mg/kg i.v. compound dose; format: functional, Mus musculus; settings: route intravenous
Colon 26 [5] = test: Antitumor activity against colon 26 murine adenocarcinoma cells expressed as % body weight change at 0.0313 mg/kg compound dose from day 7 to day 12; format: functional, Mus musculus
Colon 26 [6] = test: Antitumor activity against colon 26 murine adenocarcinoma cells expressed as % body weight change at 0.0625 mg/kg compound dose from day 7 to day 12; format: functional, Mus musculus
Colon 26 [7] = test: Antitumor activity against colon 26 murine adenocarcinoma cells expressed as % body weight change at 0.125 mg/kg compound dose from day 7 to day 12; format: functional, Mus musculus
Colon 26 [8] = test: Antitumor activity against colon 26 murine adenocarcinoma cells expressed as % body weight change at 0.177 mg/kg i.v. compound dose from day 7 to day 12; format: functional, Mus musculus; settings: route intravenous
Colon 26 [9] = test: Antitumor activity against colon 26 murine adenocarcinoma cells expressed as percent TGI (tumor growth inhibition) at 0.0313 mg/kg i.v. compound dose; format: functional; settings: Mus musculus, route intravenous, read-out: TGI
Colon 26 [10] = test: Antitumor activity against colon 26 murine adenocarcinoma cells expressed as percent TGI (tumor growth inhibition) at 0.0625 mg/kg i.v. compound dose; format: functional; settings: Mus musculus, route intravenous, read-out: TGI
Colon 26 [11] = test: Antitumor activity against colon 26 murine adenocarcinoma cells expressed as percent TGI (tumor growth inhibition) at 0.125 mg/kg i.v. compound dose; format: functional; settings: Mus musculus, route intravenous, read-out: TGI
Colon 26 [12] = test: Antitumor activity against colon 26 murine adenocarcinoma cells expressed as percent TGI (tumor growth inhibition) at 0.177 mg/kg i.v. compound dose; format: functional; settings: Mus musculus, route intravenous, read-out: TGI
Colon 26 [13] = test: Antitumor activity against colon 26 murine adenocarcinoma cells expressed as maximum dose within 10% body weight loss at 0.177 mg/kg i.v. compound dose; format: functional, Mus musculus; settings: route intravenous
HeLa = test: Concentration required for 50% inhibition of human uterine Cervix Carcinoma cells (HeLaS3); format: functional, cell-based
P388 [14] = test: Percent increase in life span of p388 murine leukemia cells (inoculated i.p. on day 0) as compared to that of untreated group at 0.25 mg/kg i.p. compound dose on day 1; cured mice =2/2; format: functional; settings: Mus musculus, P388, ip, route intraperitoneal
[15] = Percent tumor growth (TGI) inhibition against S180 murine Sarcoma cells( inoculated s.c. into male ICR mice on day 0), as compared to that of untreated group at 0.25 mg/kg i.v. compound dose on day 1; format: functional; settings: Mus musculus, CCRF S-180, route intravenous, read-out: TGI
Colon 26 [16] = test: Antitumor activity against colon 26 murine adenocarcinoma cells expressed as percent TGI (tumor growth inhibition) at 0.250 mg/kg i.v. compound dose; format: functional; settings: Mus musculus, route intravenous, read-out: TGI
Colon 26 [17] = test: Antitumor activity against colon 26 murine adenocarcinoma cells expressed as percent TGI (tumor growth inhibition) at 0.500 mg/kg i.v. compound dose; format: functional; settings: Mus musculus, route intravenous, read-out: TGI
Colon 26 [18] = test: Antitumor activity against colon 26 murine adenocarcinoma cells expressed as percent TGI (tumor growth inhibition) at 0.707 mg/kg i.v. compound dose; format: functional; settings: Mus musculus, route intravenous, read-out: TGI
Colon 26 [19] = test: Antitumor activity against colon 26 murine adenocarcinoma cells expressed as percent TGI 50 (tumor growth inhibition) at 0.707 mg/kg i.v. compound dose; format: functional, Mus musculus; settings: route intravenous
Colon 26 [20] = test: Antitumor activity against colon 26 murine adenocarcinoma cells expressed as % body weight change at 0.250 mg/kg compound dose from day 7 to day 12; format: functional, Mus musculus; settings: dose 0.25 mg/kg
Colon 26 [21] = test: Antitumor activity against colon 26 murine adenocarcinoma cells expressed as % body weight change at 0.500 mg/kg compound dose from day 7 to day 12; format: functional, Mus musculus; settings: dose 0.5 mg/kg
Colon 26 [22] = test: Antitumor activity against colon 26 murine adenocarcinoma cells expressed as % body weight change at 0.707 mg/kg compound dose from day 7 to day 12; format: functional, Mus musculus
Colon 26 [23] = test: Antitumor activity against colon 26 murine adenocarcinoma cells expressed as maximum dose within 10% body weight loss at 0.707 mg/kg i.v. compound dose; format: functional, Mus musculus; settings: route intravenous
P388 [24] = test: Percent increase in life span of p388 murine leukemia cells (inoculated i.p. on day 0) as compared to that of untreated group at 0.25 mg/kg i.p. compound dose on day 1; cured mice= 2/2; format: functional; settings: Mus musculus, P388, ip, route intraperitoneal
Colon 26 [25] = test: Antitumor activity against colon 26 murine adenocarcinoma cells expressed as percent TGI 50 (tumor growth inhibition) at 0.500 mg/kg i.v. compound dose; format: functional, Mus musculus; settings: dose 0.5 mg/kg; route intravenous
Colon 26 [26] = test: Antitumor activity against colon 26 murine adenocarcinoma cells expressed as maximum dose within 10% body weight loss at 0.500 mg/kg i.v. compound dose; format: functional, Mus musculus; settings: dose 0.5 mg/kg; route intravenous

Row | Compound | IC50 (P388 [1]) [ng/mL] | ILS at 0.125 mg/kg (P388 [2]) [%] | inhibition in vivo at 0.5 mg/kg [3] [%] | Change in body weight (Colon 26 [7]) [%] | inhibition in vivo at 0.125 mg/kg (Colon 26 [11]) [%] | IC50 (HeLa) [ng/mL] | inhibition in vivo at 0.25 mg/kg [15] [%] | further results
1 | COC(=O)c1c(C)[nH]c2c1[C@@]13C[C@@H]1CN(C(=O)c1cc4cc(OC)c(OC)c(OC)c4[nH]1)C3=CC2=O (racemic) | 0.34 (≈ 0.692 nM) | 80 | 81 |  |  |  |  | 
2 | COC(=O)c1c(C(F)(F)F)[nH]c2c1C13CC1CN(C(=O)c1cc4cc(NC(=O)c5cc6ccccc6o5)ccc4[nH]1)C3=CC2=O (racemic) | 0.53 (≈ 0.862 nM) |  |  | -4 | 87 | 0.365 (≈ 0.594 nM) | 83 | TGI50 (Colon 26 [4]): 0.041; Change in body weight (Colon 26 [5]): 0%; Change in body weight (Colon 26 [6]): -3%; Change in body weight (Colon 26 [8]): -3%; inhibition in vivo at 0.0313 mg/kg (Colon 26 [9]): 39%; inhibition in vivo at 0.0625 mg/kg (Colon 26 [10]): 68%; inhibition in vivo at 0.177 mg/kg (Colon 26 [12]): 85%; MTD/ TGI50 (Colon 26 [13]): 4.3; ILS at 0.25 mg/kg (P388 [14]): 2%
3 | COC(=O)c1c(C(F)(F)F)[nH]c2c1C13CC1CN(C(=O)c1cc4cc(OC)ccc4[nH]1)C3=CC2=O (racemic) | 0.23 (≈ 0.474 nM) | 69 |  |  |  |  | 54 | 
4 | COC(=O)c1c(C)[nH]c2c(OC(=O)N3CCN(C)CC3)cc3c(c12)[C@H](CBr)CN3C(=O)c1cc2cc(OC)c(OC)c(OC)c2[nH]1 [PIBROZELESIN] |  |  |  | 1 | 26 | 18.1 (≈ 25.9 nM) |  | inhibition in vivo at 0.25 mg/kg (Colon 26 [16]): 62%; inhibition in vivo at 0.5 mg/kg (Colon 26 [17]): 85%; inhibition in vivo at 0.707 mg/kg (Colon 26 [18]): 90%; TGI50 (Colon 26 [19]): 0.209 mg/kg; Change in body weight (Colon 26 [20]): -2%; Change in body weight (Colon 26 [21]): -1%; Change in body weight (Colon 26 [22]): -9%; MTD/ TGI50 (Colon 26 [23]): 3.4
5 | COC(=O)c1c(C(F)(F)F)[nH]c2c1C13CC1CN(C(=O)c1cc4cc(NC(=O)c5cc6ccccc6[nH]5)ccc4[nH]1)C3=CC2=O (racemic) | 0.86 (≈ 1.4 nM) |  |  |  |  |  | 84 | ILS at 0.25 mg/kg (P388 [24]): 2%
6 | COC(=O)c1c(C(F)(F)F)[nH]c2c1C13CC1CN(C(=O)c1cc4cc(OC)c(OC)c(OC)c4[nH]1)C3=CC2=O (racemic) | 0.24 (≈ 0.44 nM) | 94 | 92 |  |  |  |  | 
7 | COC(=O)c1c(C(F)(F)F)[nH]c2c(OC(=O)N3CCN(C)CC3)cc3c(c12)[C@H](CBr)CN3C(=O)c1cc2cc(OC)c(OC)c(OC)c2[nH]1 |  |  |  | 1 | 76 | 18.8 (≈ 25 nM) |  | inhibition in vivo at 0.25 mg/kg (Colon 26 [16]): 90%; inhibition in vivo at 0.5 mg/kg (Colon 26 [17]): 93%; TGI50 (Colon 26 [25]): 0.0429; Change in body weight (Colon 26 [6]): 2%; Change in body weight (Colon 26 [20]): 5%; Change in body weight (Colon 26 [21]): 8%; inhibition in vivo at 0.0625 mg/kg (Colon 26 [10]): 58%; MTD/ TGI50 (Colon 26 [26]): 11.7
8 | COC(=O)c1[nH]c2c(c1C(=O)OC)C13CC1CN(C(=O)c1cc4cc(NC(=O)c5cc6ccccc6[nH]5)ccc4[nH]1)C3=CC2=O (racemic) | 0.31 (≈ 0.514 nM) | 102 | 44 |  |  |  |  | 
9 | COC(=O)c1[nH]c2c(c1C(=O)OC)C13CC1CN(C(=O)c1cc4cc(NC(=O)c5cc6ccccc6o5)ccc4[nH]1)C3=CC2=O (racemic) | 0.66 (≈ 1.09 nM) | 79 | 26 |  |  |  |  | 
